Drawing on patent publication US20240174662A1, “SMALL MOLECULE INHIBITORS OF SALT INDUCIBLE KINASES” (Janssen Biotech, Inc., priority 2021, published 2024), this text covers IC50 for 22 compounds.

This test addresses SIK2 (Homo sapiens (Human), UniProt Q9H0K1). Nature of the test: SIK2 Enzymatic Assay Version 2 (High ATP). It is filed as biochemical. To be noted: 3 mM ATP and 200 μM HDAC5tide final, ADP-Glo Max luminescence. The procedure, abridged: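 Run at room temperature; SIK2 enzyme at 6 nM (2× final) preincubated with compound 30 min before reaction. ADP formation detected by ADP-Glo Max (2 h reagent, 1 h detection) with luminescence read-out.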
(ADP-Glo turns the ADP formed in a reaction into a luminescent signal.)

Some results are limits rather than exact numbers.

SIK2, sequence (Q9H0K1 whole entry, species assumed): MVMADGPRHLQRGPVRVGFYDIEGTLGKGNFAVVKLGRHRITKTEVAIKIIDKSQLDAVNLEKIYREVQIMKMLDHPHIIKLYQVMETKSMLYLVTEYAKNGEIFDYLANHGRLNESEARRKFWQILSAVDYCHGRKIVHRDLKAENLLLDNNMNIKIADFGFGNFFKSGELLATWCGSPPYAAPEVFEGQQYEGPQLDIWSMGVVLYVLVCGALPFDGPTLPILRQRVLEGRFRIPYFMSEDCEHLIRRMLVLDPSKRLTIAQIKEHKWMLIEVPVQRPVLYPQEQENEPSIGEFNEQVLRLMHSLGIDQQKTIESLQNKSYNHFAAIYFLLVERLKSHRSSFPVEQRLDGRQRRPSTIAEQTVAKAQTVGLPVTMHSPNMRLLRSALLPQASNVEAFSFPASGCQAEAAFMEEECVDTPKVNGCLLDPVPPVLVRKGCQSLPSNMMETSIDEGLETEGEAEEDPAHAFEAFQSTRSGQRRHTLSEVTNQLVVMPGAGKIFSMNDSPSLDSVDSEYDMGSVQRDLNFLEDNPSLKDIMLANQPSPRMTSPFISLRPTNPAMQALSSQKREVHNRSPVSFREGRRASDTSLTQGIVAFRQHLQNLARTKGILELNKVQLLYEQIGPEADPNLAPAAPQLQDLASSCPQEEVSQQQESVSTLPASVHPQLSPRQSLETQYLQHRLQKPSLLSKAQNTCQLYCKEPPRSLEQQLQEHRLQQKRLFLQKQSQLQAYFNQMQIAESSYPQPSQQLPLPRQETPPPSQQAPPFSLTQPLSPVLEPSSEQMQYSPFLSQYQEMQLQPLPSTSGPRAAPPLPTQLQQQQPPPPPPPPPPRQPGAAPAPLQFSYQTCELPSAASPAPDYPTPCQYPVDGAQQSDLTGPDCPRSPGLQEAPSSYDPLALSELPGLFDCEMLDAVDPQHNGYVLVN

As usually defined, the IC50 is the point on the concentration scale where inhibition reaches its midpoint. `COC1(COc2noc(C)c2-c2ccn3nc(NC(=O)C4CC4)cc3c2)CNC1` [Example 76, N-[5-[3-[(3-methoxyazetidin-3-yl)methoxy]-5-methyl-isoxazol-4-yl]pyrazolo[1,5-a]pyridin-2-yl]cyclopropanecarboxamide] had an IC50 of 0.0122 µM.

Regarding `CN1CC[C@@H](COc2cnn(Cc3ccccc3)c2-c2ccn3nc(NC(=O)C4CC4)cc3c2)C1` [Example 491, N-[5-[2-benzyl-4-[[(3R)-1-methylpyrrolidin-3-yl]methoxy]pyrazol-3-yl]pyrazolo[1,5-a]pyridin-2-yl]cyclopropanecarboxamide], the IC50 was > 50 µM.

`Cn1ncc(OC[C@@]23CN[C@@H](CO2)C3)c1-c1ccn2nc(NC(=O)C3CC3)cc2c1` [Example 234, N-[5-[2-methyl-4-[[(1R,4R)-5-oxa-2-azabicyclo[2.2.1]heptan-4-yl]methoxy]pyrazol-3-yl]pyrazolo[1,5-a]pyridin-2-yl]cyclopropanecarboxamide] had an IC50 of 0.0011 µM.

The compound `CCN1CC[C@H]1COc1cnn(C)c1-c1ccn2nc(Nc3cnc(C)c(C)n3)cc2c1` [Example 359, N-(5,6-dimethylpyrazin-2-yl)-5-[4-[[(2S)-1-ethylazetidin-2-yl]methoxy]-2-methyl-pyrazol-3-yl]pyrazolo[1,5-a]pyridin-2-amine] registered an IC50 of 0.0524 µM.

The compound `CCN1CC[C@@H]1COc1cnn(C)c1-c1ccn2nc(NC(=O)C3CC3)cc2c1` [Example 52, N-[5-[4-[[(2R)-1-ethylazetidin-2-yl]methoxy]-2-methyl-pyrazol-3-yl]pyrazolo[1,5-a]pyridin-2-yl]cyclopropanecarboxamide] came in with a half-maximal inhibitory concentration (IC50) of 0.0036 µM.

With `Cc1cc(Nc2cc3cc(-c4c(OC[C@H]5CCN5C)cnn4C(F)F)ccn3n2)nc(C)n1` [Example 140, 5-[2-(difluoromethyl)-4-[[(2R)-1-methylazetidin-2-yl]methoxy]pyrazol-3-yl]-N-(2,6-dimethylpyrimidin-4-yl)pyrazolo[1,5-a]pyridin-2-amine], the IC50 is 0.0012 µM.

In turn, `CCN1CC[C@@H]1COc1cnn(C(F)F)c1-c1ccn2nc(Nc3cc(C)nc(C)n3)cc2c1` [Example 479, 5-[2-(difluoromethyl)-4-[[(2R)-1-ethylazetidin-2-yl]methoxy]pyrazol-3-yl]-N-(2,6-dimethylpyrimidin-4-yl)pyrazolo[1,5-a]pyridin-2-amine] showed a 50% inhibitory concentration (IC50) of 0.0011 µM.

In the case of `C[C@@H]1C[C@H](Oc2cnn(C)c2-c2ccn3nc(NC(=O)C4CC4)cc3c2)CN1` [Example 233, N-[5-[2-methyl-4-[(3S,5R)-5-methylpyrrolidin-3-yl]oxy-pyrazol-3-yl]pyrazolo[1,5-a]pyridin-2-yl]cyclopropanecarboxamide], the IC50 amounted to 0.0302 µM.

As for `C[C@@H]1CC[C@H](COc2cnn(C)c2-c2ccn3nc(NC(=O)C4CC4)cc3c2)N1C` [Example 256, N-[5-[4-[[(2R,5R)-1,5-dimethylpyrrolidin-2-yl]methoxy]-2-methyl-pyrazol-3-yl]pyrazolo[1,5-a]pyridin-2-yl]cyclopropanecarboxamide], the IC50 was found to be 0.042 µM.

On to `Cc1onc(O[C@@H]2CCNC3(CCC3)C2)c1-c1ccn2nc(NC(=O)C3CC3)cc2c1` (single isomer, unassigned) [Example 218, (*R)—N-[5-[3-(9-azaspiro[3.5]nonan-6-yloxy)-5-methyl-isoxazol-4-yl]pyrazolo[1,5-a]pyridin-2-yl]cyclopropanecarboxamide], for which the IC50 turned out to be 0.0495 µM.

With `Cn1ncc(OCC2NCC23CC3)c1-c1ccn2nc(NC(=O)C3CC3)cc2c1` (racemic) [Example 240, (RS)—N-[5-[4-(5-azaspiro[2.3]hexan-6-ylmethoxy)-2-methyl-pyrazol-3-yl]pyrazolo[1,5-a]pyridin-2-yl]cyclopropanecarboxamide], the IC50 is 0.0287 µM.

In turn, `Cn1ncc(OC[C@@H](O)c2ccccc2)c1-c1ccn2nc(NC(=O)C3CC3)cc2c1` [Example 27, N-[5-[4-[(2S)-2-hydroxy-2-phenyl-ethoxy]-2-methyl-pyrazol-3-yl]pyrazolo[1,5-a]pyridin-2-yl]cyclopropanecarboxamide] displayed an IC50 of 0.0118 µM.

`Cc1cnc(Nc2cc3cc(-c4c(OC[C@H]5CCN5)cnn4C)ccn3n2)cn1` [Example 393, 5-[4-[[(2R)-azetidin-2-yl]methoxy]-2-methyl-pyrazol-3-yl]-N-(5-methylpyrazin-2-yl)pyrazolo[1,5-a]pyridin-2-amine]: the midpoint of inhibition, the IC50, lay at 0.0984 µM.

The compound `C[C@H]1CN(C)[C@H]1COc1cnn(C)c1-c1ccn2nc(NC(=O)C3CC3)cc2c1` [Example 437, N-[5-[4-[[(2R,3S)-1,3-dimethylazetidin-2-yl]methoxy]-2-methyl-pyrazol-3-yl]pyrazolo[1,5-a]pyridin-2-yl]cyclopropanecarboxamide] gave an IC50 of 0.0856 µM.

Compound `Cn1ncc(OC[C@H]2CCN2)c1-c1ccn2nc(NC(=O)C3CC3)cc2c1` [Example 346, (R)—N-(5-(4-(azetidin-2-ylmethoxy)-1-methyl-1H-pyrazol-5-yl)pyrazolo[1,5-a]pyridin-2-yl)cyclopropanecarboxamide] registered an IC50 of 0.0589 µM.

Compound `Cc1onc(OC[C@@H](c2ccccc2F)N(C)C)c1-c1ccn2nc(NC(=O)C3CC3)cc2c1` [Example 222, N-[5-[3-[(2R)-2-(dimethylamino)-2-(2-fluorophenyl)ethoxy]-5-methyl-isoxazol-4-yl]pyrazolo[1,5-a]pyridin-2-yl]cyclopropanecarboxamide] gave an IC50 of 0.0275 µM.

In turn, `Cc1cncc(Nc2cc3cc(-c4c(OC[C@H]5CCN5)cnn4C)ccn3n2)n1` [Example 45, 5-[4-[[(2R)-azetidin-2-yl]methoxy]-2-methyl-pyrazol-3-yl]-N-(6-methylpyrazin-2-yl)pyrazolo[1,5-a]pyridin-2-amine] returned an IC50 of 0.0241 µM.

As for `CCN1CCC[C@@H]1COc1cnn(C)c1-c1ccn2nc(Nc3cc(C)nc(C)n3)cc2c1` [Example 289, N-(2,6-dimethylpyrimidin-4-yl)-5-[4-[[(2R)-1-ethylpyrrolidin-2-yl]methoxy]-2-methyl-pyrazol-3-yl]pyrazolo[1,5-a]pyridin-2-amine], the IC50 amounted to 0.0014 µM.

The compound `Cc1onc(O[C@@H]2CNC[C@@H]2F)c1-c1ccn2nc(NC(=O)C3CC3)cc2c1` (racemic) [Example 208, (rac-cis)-N-[5-[3-(4-fluoropyrrolidin-3-yl)oxy-5-methyl-isoxazol-4-yl]pyrazolo[1,5-a]pyridin-2-yl]cyclopropanecarboxamide] returned an IC50 of 0.0115 µM.

Regarding `Cc1cc(Nc2cc3cc(-c4c(OC[C@H]5CCN5C)cnn4C(F)F)ccn3n2)nn(C)c1=O` [Example 33, 6-[[5-[2-(difluoromethyl)-4-[[(2R)-1-methylazetidin-2-yl]methoxy]pyrazol-3-yl]pyrazolo[1,5-a]pyridin-2-yl]amino]-2,4-dimethyl-pyridazin-3-one], the midpoint of inhibition, the IC50, lay at 0.0013 µM.

In the case of `Cc1cc(Nc2cc3cc(-c4c(OC[C@H]5CCN5C)cnn4C)ccn3n2)ncn1` [Example 55, 5-[2-methyl-4-[[(2R)-1-methylazetidin-2-yl]methoxy]pyrazol-3-yl]-N-(6-methylpyrimidin-4-yl)pyrazolo[1,5-a]pyridin-2-amine], the IC50 was found to be 0.0013 µM.

Compound `Cc1cnnc(Nc2cc3cc(-c4c(OC[C@H]5CCN5C)cnn4C)ccn3n2)c1` [Example 141, 5-[2-methyl-4-[[(2R)-1-methylazetidin-2-yl]methoxy]pyrazol-3-yl]-N-(5-methylpyridazin-3-yl)pyrazolo[1,5-a]pyridin-2-amine] came in with an IC50 of 0.001 µM.
